Measured values: paper PMC11969009 (Nature Communications, 2025)
Values joined by “and” are separate entries in the source; they are usually repeats but may differ in a detail not shown here. Identical values can stand only once. Like-named read-outs stand apart in the source and are kept apart here.

What was measured:
[1] = target: SARS-CoV-2 PLpro (Severe acute respiratory syndrome coronavirus 2, UniProt P0DTD1); test: biochemical; parameters: inhibition of SARS-CoV-2 PLpro, UbRh dose-response replicate value: unit: %
[2] = target: SARS-CoV PLpro (Severe acute respiratory syndrome coronavirus, UniProt P0C6X7); test: biochemical; parameters: inhibition of SARS-CoV PLpro, UbRh dose-response replicate value: unit: %
[3] = target: MERS-CoV PLpro (Middle East respiratory syndrome-related coronavirus, UniProt K9N7C7); format: biochemical; parameters: unit: %
Chain of MERS-CoV PLpro (K9N7C7 1482-1803 limits assumed): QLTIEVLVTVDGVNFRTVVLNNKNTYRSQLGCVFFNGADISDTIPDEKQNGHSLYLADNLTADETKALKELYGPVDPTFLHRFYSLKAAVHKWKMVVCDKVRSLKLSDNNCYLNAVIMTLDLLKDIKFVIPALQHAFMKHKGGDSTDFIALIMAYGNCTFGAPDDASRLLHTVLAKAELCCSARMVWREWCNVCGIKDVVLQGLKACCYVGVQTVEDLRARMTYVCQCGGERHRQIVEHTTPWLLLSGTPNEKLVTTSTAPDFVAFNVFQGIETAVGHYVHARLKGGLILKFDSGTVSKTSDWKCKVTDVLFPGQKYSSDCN

## CO/N=C(/c1ccc2cc(OC)ccc2c1)[C@@H]1CCCN([C@H]2CC[C@@H](O)CC2)C1 [WEHI-P4]
[1]; Conc 0.000249 µM
  inhibition of SARS-CoV-2 PLpro, UbRh dose-response replicate value: -6.989 and -6.2311 and -15.3901 and -12.0234 and -3.121 and 2.182 and 11.6978 and 1.819
[1]; Conc 0.000745 µM
  inhibition of SARS-CoV-2 PLpro, UbRh dose-response replicate value: -5.473 and -5.949 and -17.0454 and -10.682
[1]; Conc 0.000747 µM
  inhibition of SARS-CoV-2 PLpro, UbRh dose-response replicate value: 12.1399 and 17.4092 and 12.0617
[1]; Conc 0.000747 µM, read-out: inhibition of SARS-CoV-2 PLpro, UbRh dose-response replicate value
  inhibition at 0.000747 µM: 8.73%
[1]; Conc 0.00498 µM
  inhibition of SARS-CoV-2 PLpro, UbRh dose-response replicate value: -1.775 and 0.6518 and -0.6615 and -14.6544
[1]; Conc 0.00675 µM
  inhibition of SARS-CoV-2 PLpro, UbRh dose-response replicate value: 22.4234 and 17.1978 and 22.0771
[1]; Conc 0.00675 µM, read-out: inhibition of SARS-CoV-2 PLpro, UbRh dose-response replicate value
  inhibition at 0.00675 µM: 23.8%
[1]; Conc 0.0149 µM
  inhibition of SARS-CoV-2 PLpro, UbRh dose-response replicate value: 22.1269 and 15.6043 and 12.3348
[1]; Conc 0.0149 µM, read-out: inhibition of SARS-CoV-2 PLpro, UbRh dose-response replicate value
  inhibition at 0.0149 µM: 20.2%
[1]; Conc 0.0448 µM
  inhibition of SARS-CoV-2 PLpro, UbRh dose-response replicate value: 70.4961 and 67.8098 and 82.9795
[1]; Conc 0.0448 µM, read-out: inhibition of SARS-CoV-2 PLpro, UbRh dose-response replicate value
  inhibition at 0.0448 µM: 69.6%
[1]; Conc 0.545 µM
  inhibition of SARS-CoV-2 PLpro, UbRh dose-response replicate value: 96.1218 and 96.9708 and 96.4204 and 99.1563 and 99.6768 and 97.5259 and 100.026
[1]; Conc 0.545 µM, read-out: inhibition of SARS-CoV-2 PLpro, UbRh dose-response replicate value
  inhibition at 0.545 µM: 94.8%
[1]; Conc 1.63 µM
  inhibition of SARS-CoV-2 PLpro, UbRh dose-response replicate value: 99.7919 and 99.9266 and 100.674
[1]; Conc 1.63 µM, read-out: inhibition of SARS-CoV-2 PLpro, UbRh dose-response replicate value
  inhibition at 1.63 µM: 99.9%
[1]; Conc 1.64 µM
  inhibition of SARS-CoV-2 PLpro, UbRh dose-response replicate value: 100.528 and 98.3984 and 97.5602
[1]; Conc 1.64 µM, read-out: inhibition of SARS-CoV-2 PLpro, UbRh dose-response replicate value
  inhibition at 1.64 µM: 101%
[1]; Conc 3.63 µM
  inhibition of SARS-CoV-2 PLpro, UbRh dose-response replicate value: 107.19 and 107.537 and 118.551
[1]; Conc 3.63 µM, read-out: inhibition of SARS-CoV-2 PLpro, UbRh dose-response replicate value
  inhibition at 3.63 µM: 108%
[1]; Conc 4.9 µM
  inhibition of SARS-CoV-2 PLpro, UbRh dose-response replicate value: 99.5845 and 98.2639 and 99.0831 and 98.0118 and 99.4255 and 97.4945 and 99.077
[1]; Conc 4.9 µM, read-out: inhibition of SARS-CoV-2 PLpro, UbRh dose-response replicate value
  inhibition at 4.9 µM: 99.1%
[1]; Conc 98 µM
  inhibition of SARS-CoV-2 PLpro, UbRh dose-response replicate value: 106.984 and 107.551 and 120.253
[1]; Conc 98 µM, read-out: inhibition of SARS-CoV-2 PLpro, UbRh dose-response replicate value
  inhibition at 98 µM: 107%
[1]; IC50 (UbRh) SARS-CoV-2 PLpro, Supplementary Fig. 2b
  IC50: 32 nM
[1]; read-out: inhibition of SARS-CoV-2 PLpro, UbRh dose-response replicate value
  inhibition at […]: 93.6% and 81.4% and 107% (2×) and 108% and 105% and 99.2% and 92.6%
[2]
  IC50: 22 nM
  inhibition of SARS-CoV PLpro, UbRh dose-response replicate value: 99.5179 and 99.8695 and 99.888 and 100.41 and 101.206 and 100.652 and 97.9154 and 99.4293 and 98.8906 and 95.7801 and 96.2197 and 96.0782 and 88.7276 and 90.1243 and 89.7578
[2]; Conc 0.00498 µM
  inhibition of SARS-CoV PLpro, UbRh dose-response replicate value: 14.7599 and 17.411 and 20.7686
[2]; Conc 0.00498 µM, read-out: inhibition of SARS-CoV PLpro, UbRh dose-response replicate value
  inhibition at 0.00498 µM: 16.2%
[2]; Conc 0.0149 µM
  inhibition of SARS-CoV PLpro, UbRh dose-response replicate value: 37.3989 and 38.0308 and 36.4129
[2]; Conc 0.0149 µM, read-out: inhibition of SARS-CoV PLpro, UbRh dose-response replicate value
  inhibition at 0.0149 µM: 35.6%
[2]; Conc 0.0448 µM
  inhibition of SARS-CoV PLpro, UbRh dose-response replicate value: 69.6451 and 70.3349 and 71.2781
[2]; Conc 0.0448 µM, read-out: inhibition of SARS-CoV PLpro, UbRh dose-response replicate value
  inhibition at 0.0448 µM: 67.2%
[2]; Conc 3.63 µM
  inhibition of SARS-CoV PLpro, UbRh dose-response replicate value: 99.5331 and 99.9857 and 99.4982
[2]; Conc 3.63 µM, read-out: inhibition of SARS-CoV PLpro, UbRh dose-response replicate value
  inhibition at 3.63 µM: 99.4%
[2]; Conc 98 µM
  inhibition of SARS-CoV PLpro, UbRh dose-response replicate value: 99.3819 and 99.8238 and 100.106
[2]; Conc 98 µM, read-out: inhibition of SARS-CoV PLpro, UbRh dose-response replicate value
  inhibition at 98 µM: 99.7%
[2]; read-out: inhibition of SARS-CoV PLpro, UbRh dose-response replicate value
  inhibition at […]: 100% (2×) and 98.8% and 95.9% and 88.8%
[3]
  inhibition of MERS-CoV PLpro, UbRh dose-response replicate value: -2.626 and 0.2924 and -2.097 and -1.6716 and -0.7294 and -2.565 and -2.287 and 0.1452 and -3.504 and -2.889 and 1.578 and -2.541 and -3.292 and -3.12 and -0.8701 and -1.654 and -2.848 and 0.1888 and -1.626
[3]; Conc 0.00498 µM
  inhibition of MERS-CoV PLpro, UbRh dose-response replicate value: 2.537 and 1.088 and 4.818 and -0.3578
[3]; Conc 0.0149 µM
  inhibition of MERS-CoV PLpro, UbRh dose-response replicate value: 0.4714 and 1.45 and -3.026 and -3.057
[3]; Conc 0.0448 µM
  inhibition of MERS-CoV PLpro, UbRh dose-response replicate value: 0.04351 and -1.536 and 0.7971 and -3.294
